Source: article PMC9192638, “Compact IF2 allows initiator tRNA accommodation into the P site and gates the ribosome to elongation” (Nature Communications, 2022)

B1: ribosomal protein uL16 (natural protein, UniProt Q9HWE2 1-137, looked up)
chain: MLQPKRTKFRKQMTGHNRGLAHRGSKVSFGEYALKATSRGRLTARQIESARRALTRHVKRGGKIWIRVFPDKPVTKKPLEVRMGKGKGGVEYWVAQIQPGKVLYEIEGVSEELAREAFALAAAKLPLATSFVKRTVM
notes: 50 S ribosomal protein uL16, Pseudomonas aeruginosa PAO1, as part of the 70 S ribosome; Stood in the assay as a subunit of the whole 70 S ribosome with mRNA and fMet-tRNA; source: endogenous, in 70 S ribosomes purified from P. aeruginosa PAO1 (sucrose cushion, sucrose density gradients)
B2: ribosomal protein uL11 (natural protein, UniProt Q9HWC5 1-143, looked up)
chain: MAKKIQAYIKLQVKAGQANPSPPVGPALGQHGVNIMEFCKAFNAKTQGQEPGLPTPVIITVYSDRSFTFETKSTPAAVLLKKAAGITSGSARPNSQKVGTVTRAQLEEIAKTKQADLTAADLDAAVRTIAGSARSMGLNVEGV
notes: 50 S ribosomal protein uL11, Pseudomonas aeruginosa PAO1, as part of the 70 S ribosome; Stood in the assay as a subunit of the whole 70 S ribosome with mRNA and fMet-tRNA; also called uL11-NTD; source: endogenous, in 70 S ribosomes purified from P. aeruginosa PAO1 (sucrose cushion, sucrose density gradients)

What was measured:
[1] = target: T1, IF2 (initiation factor 2) (Pseudomonas aeruginosa, UniProt Q9HV55); assay: cryo-EM structure; format: binding; conditions: pH 7.6, 10 mM MgCl2
T1 construct: gene infB; full-length; N-terminal 6xHis-SMT3 tag removed by Ulp1; expressed in E. coli BL21(DE3) Star; compact model residues 337-835
T1 sequence (Q9HV55 whole entry, the tested form may be a part): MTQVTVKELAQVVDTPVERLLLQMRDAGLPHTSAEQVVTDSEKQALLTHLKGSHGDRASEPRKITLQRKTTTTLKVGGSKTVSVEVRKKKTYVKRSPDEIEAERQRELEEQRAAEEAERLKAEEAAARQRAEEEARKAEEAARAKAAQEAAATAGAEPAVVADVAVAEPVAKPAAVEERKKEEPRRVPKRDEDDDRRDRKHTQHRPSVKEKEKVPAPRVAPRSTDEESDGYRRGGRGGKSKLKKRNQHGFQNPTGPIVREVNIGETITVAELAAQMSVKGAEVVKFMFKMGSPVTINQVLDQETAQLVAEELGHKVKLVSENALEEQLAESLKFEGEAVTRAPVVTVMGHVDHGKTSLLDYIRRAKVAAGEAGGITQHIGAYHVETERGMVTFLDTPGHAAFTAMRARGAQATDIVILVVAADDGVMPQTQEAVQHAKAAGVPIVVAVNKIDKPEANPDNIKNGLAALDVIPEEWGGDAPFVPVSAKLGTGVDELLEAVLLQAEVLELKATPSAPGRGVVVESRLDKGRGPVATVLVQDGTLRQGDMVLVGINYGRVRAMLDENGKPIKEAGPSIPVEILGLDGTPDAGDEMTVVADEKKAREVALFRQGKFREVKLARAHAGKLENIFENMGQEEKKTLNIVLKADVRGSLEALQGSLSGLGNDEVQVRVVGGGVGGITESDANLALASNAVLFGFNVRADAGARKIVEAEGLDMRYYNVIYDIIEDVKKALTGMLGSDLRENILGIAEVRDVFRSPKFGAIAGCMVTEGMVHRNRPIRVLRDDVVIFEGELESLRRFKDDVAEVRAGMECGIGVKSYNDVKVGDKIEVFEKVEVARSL

[2] = target: T2, initiation factor 2 (IF2) from Pseudomonas aeruginosa (Pseudomonas aeruginosa PAO1, UniProt Q9HV55 1-840); assay: cryo-EM structure; rotated 70S-IC with extended IF2-GDPCP (structures II-A and II-B); 2 uM 70 S ribosome, 25 uM mRNA, 10 uM fMet-tRNA, 30 uM IF2, 2 mM GDPCP; 10 mM Hepes 7.6, 60 mM NH4Cl, 15 mM KCl, 10 mM MgCl2; conditions: both partners purified
T2 construct: Translation initiation factor IF2, Pseudomonas aeruginosa PAO1; residues modelled in the maps: 248-332 (N2 sub-domain region, extended IF2) and 337-835 (compact IF2); Co-purifies with GDP; GDPCP was added to the complex, so the sample held IF2-GDP (compact) and IF2-GDPCP (extended); also called PaeIF2; IF2-GDP; source: E. coli BL21 (DE3) Star, purified (HisTrap, Ulp1 cleavage, reverse HisTrap, …)
T2 sequence (Q9HV55 whole entry): as the sequence (Q9HV55 whole entry, the tested form may be a part) above

| Molecule | binding result [2] | other results |
| --- | --- | --- |
| Nc1nc2c(ncn2[C@@H]2O[C@H](COP(=O)(O)OP(=O)(O)CP(=O)(O)O)[C@@H](O)[C@H]2O)c(=O)[nH]1 [GDPCP, β,γ-methyleneguanosine 5’-triphosphate] | – | cryo-EM structure ([1]; extended IF2 on rotated 70S ribosome initiation complex with mRNA and fMet-tRNA, 2 mM GDPCP added, G-domain nucleotide site with Mg2+): well-defined density for extended IF2 and GDPCP in the G-domain |
| Nc1nc2c(ncn2[C@@H]2O[C@H](COP(=O)(O)OP(=O)(O)O)[C@@H](O)[C@H]2O)c(=O)[nH]1 [GDP] | – | cryo-EM structure ([1]; compact IF2 on non-rotated 70S ribosome initiation complex with mRNA and fMet-tRNA, GDP co-purified with IF2, G-domain nucleotide site): visualizes the GDP nucleotide bound in the G-domain |
| B1 | binds | – |
| B2 | binds | – |
